Test results from ChEMBL document CHEMBL1201862, “PubChem BioAssay data set” (2004).
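Method: 48-hour compound exposure of cells in 96-well plates, five concentrations, linear interpolation of endpoints. Abbreviation: GI50, concentration required for 50% inhibition of growth.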 Activity calls are given as the source filed them. Cut-off read from the data, not from the text of the source: active = GI50 up to about 1.1 µM and inactive = higher.

How the values were obtained:
Experiment in all cases: growth of human tumour cells (NCI), 48 h
[1] = tested on: MDA-N
[2] = tested on: BT-549
[3] = tested on: SNB-19
[4] = tested on: 786-0
[5] = tested on: SW-620
[6] = tested on: HCT-116
[7] = tested on: SN12C
[8] = tested on: RPMI-8226
[9] = tested on: DU-145
[10] = tested on: M14
[11] = tested on: NCI-H23
[12] = tested on: COLO 205
[13] = tested on: UACC-62
[14] = tested on: U-251
[15] = tested on: HCT-15
[16] = tested on: UACC-257
[17] = tested on: SK-MEL-28
[18] = tested on: MCF7
[19] = tested on: SF-539
[20] = tested on: T47D
[21] = tested on: SF-268
[22] = tested on: PC-3
[23] = tested on: CAKI-1
[24] = tested on: IGROV-1
[25] = tested on: OVCAR-5
[26] = tested on: HOP-62
[27] = tested on: SF-295
[28] = tested on: NCI/ADR-RES
[29] = tested on: NCI-H460
[30] = tested on: Malme-3M
[31] = tested on: SK-OV-3
[32] = tested on: ACHN
[33] = tested on: CCRF-CEM
[34] = tested on: A549
[35] = tested on: HT-29
[36] = tested on: EKVX
[37] = tested on: OVCAR-3
[38] = tested on: SNB-75
[39] = tested on: MOLT-4
[40] = tested on: OVCAR-8
[41] = tested on: HCC 2998
[42] = tested on: UO-31
[43] = tested on: HOP-92
[44] = tested on: NCI-H522
[45] = tested on: SK-MEL-2
[46] = tested on: LOX IMVI
[47] = tested on: MDA-MB-231
[48] = tested on: MDA-MB-435
[49] = tested on: HL-60
[50] = tested on: NCI-H226
[51] = tested on: K562
[52] = tested on: SK-MEL-5
[53] = tested on: RXF 393
[54] = tested on: TK-10
[55] = tested on: KM12
[56] = tested on: SR
[57] = tested on: OVCAR-4

CCN(CC)C(=S)N/N=C/c1ccccn1
GI50 [1]: 0.166 µM (active)
GI50 [2]: 0.37 µM (active)
GI50 [3]: < 0.0118 µM (active)
GI50 [4]: < 0.01 µM (active)
GI50 [5]: < 0.01 µM (active)
GI50 [6]: < 0.01 µM (active)
GI50 [7]: 0.0212 µM (active)
GI50 [8]: < 0.01 µM (active)
GI50 [9]: 0.154 µM (active)
GI50 [10]: 0.0324 µM (active)
GI50 [11]: < 0.01 µM (active)
GI50 [12]: < 0.01 µM (active)
GI50 [13]: < 0.0328 µM (active)
GI50 [14]: < 0.01 µM (active)
GI50 [15]: < 0.01 µM
GI50 [16]: < 0.01 µM (active)
GI50 [17]: 0.187 µM (active)
GI50 [18]: < 0.01 µM (active)
GI50 [19]: < 0.0382 µM (active)
GI50 [20]: < 0.01 µM (active)
GI50 [21]: < 0.0177 µM (active)
GI50 [22]: < 0.01 µM (active)
GI50 [23]: < 0.01 µM (active)
GI50 [24]: < 0.01 µM (active)
GI50 [25]: 0.2 µM (active)
GI50 [26]: < 0.01 µM (active)
GI50 [27]: < 0.0483 µM (active)
GI50 [28]: < 0.01 µM (active)
GI50 [29]: 0.0143 µM (active)
GI50 [30]: 0.0205 µM (active)
GI50 [31]: < 0.0192 µM (active)
GI50 [32]: < 0.0172 µM (active)
GI50 [33]: < 0.01 µM (active)
GI50 [34]: 0.0239 µM (active)
GI50 [35]: < 0.01 µM (active)
GI50 [36]: < 0.01 µM (active)
GI50 [37]: < 0.01 µM (active)
GI50 [38]: 0.624 µM (active)
GI50 [39]: < 0.01 µM (active)
GI50 [40]: < 0.01 µM (active)
GI50 [41]: 0.149 µM (active)
GI50 [42]: 0.0415 µM (active)
GI50 [43]: 0.113 µM (active)
GI50 [44]: < 0.01 µM (active)
GI50 [45]: 0.625 µM (active)
GI50 [46]: < 0.01 µM (active)
GI50 [47]: < 0.01 µM (active)
GI50 [48]: 0.12 µM (active)
GI50 [49]: < 0.0149 µM (active)
GI50 [50]: < 0.0138 µM (active)
GI50 [51]: < 0.01 µM (active)
GI50 [52]: < 0.0174 µM (active)

CC(=O)n1c2ccc(Br)cc2c2nc3ccccc3nc21
GI50 [1]: > 100 µM (inactive)
GI50 [2]: > 100 µM (inactive)
GI50 [3]: > 100 µM (inactive)
GI50 [4]: > 100 µM (inactive)
GI50 [5]: > 100 µM (inactive)
GI50 [6]: > 100 µM (inactive)
GI50 [7]: > 100 µM (inactive)
GI50 [8]: > 100 µM (inactive)
GI50 [9]: > 100 µM (inactive)
GI50 [10]: > 100 µM (inactive)
GI50 [11]: > 100 µM (inactive)
GI50 [53]: > 100 µM (inactive)
GI50 [12]: > 100 µM (inactive)
GI50 [13]: > 100 µM (inactive)
GI50 [14]: > 100 µM (inactive)
GI50 [15]: > 100 µM
GI50 [16]: > 100 µM (inactive)
GI50 [17]: > 100 µM (inactive)
GI50 [18]: 56.2 µM (inactive)
GI50 [19]: > 100 µM (inactive)
GI50 [21]: > 100 µM (inactive)
GI50 [22]: > 100 µM (inactive)
GI50 [23]: > 100 µM (inactive)
GI50 [24]: > 100 µM (inactive)
GI50 [25]: > 100 µM (inactive)
GI50 [26]: 95.1 µM (inactive)
GI50 [27]: > 100 µM (inactive)
GI50 [28]: > 100 µM (inactive)
GI50 [29]: > 100 µM (inactive)
GI50 [30]: > 100 µM (inactive)
GI50 [32]: > 100 µM (inactive)
GI50 [33]: > 100 µM (inactive)
GI50 [35]: > 100 µM (inactive)
GI50 [36]: > 100 µM (inactive)
GI50 [37]: > 100 µM (inactive)
GI50 [38]: > 100 µM (inactive)
GI50 [54]: > 100 µM (inactive)
GI50 [39]: > 100 µM (inactive)
GI50 [40]: > 100 µM (inactive)
GI50 [41]: > 100 µM (inactive)
GI50 [55]: > 100 µM (inactive)
GI50 [42]: > 100 µM (inactive)
GI50 [43]: > 100 µM (inactive)
GI50 [44]: > 100 µM (inactive)
GI50 [45]: > 100 µM (inactive)
GI50 [56]: > 100 µM (inactive)
GI50 [46]: > 100 µM (inactive)
GI50 [47]: > 100 µM (inactive)
GI50 [48]: > 100 µM (inactive)
GI50 [49]: > 100 µM (inactive)
GI50 [50]: > 100 µM (inactive)
GI50 [51]: > 100 µM (inactive)
GI50 [52]: > 100 µM (inactive)
GI50 [57]: 75.3 µM (inactive)

COc1cc(Br)cc2cc(C3=CSC4=NCCN34)c(=O)oc12
GI50 [1]: 18.5 µM (inactive)
GI50 [2]: 22 µM (inactive)
GI50 [3]: 18.1 µM (inactive)
GI50 [4]: 18.4 µM (inactive)
GI50 [5]: 25.3 µM (inactive)
GI50 [6]: 17.8 µM (inactive)
GI50 [7]: 17.5 µM (inactive)
GI50 [8]: 22.7 µM (inactive)
GI50 [9]: 17.8 µM (inactive)
GI50 [10]: 22.2 µM (inactive)
GI50 [11]: 20.1 µM (inactive)
GI50 [53]: 17.5 µM (inactive)
GI50 [12]: 20.7 µM (inactive)
GI50 [13]: 17.8 µM (inactive)
GI50 [14]: 18.1 µM (inactive)
GI50 [15]: 17.2 µM
GI50 [16]: 25.3 µM (inactive)
GI50 [17]: 29.5 µM (inactive)
GI50 [18]: 18 µM (inactive)
GI50 [19]: 19.9 µM (inactive)
GI50 [20]: 17.5 µM (inactive)
GI50 [22]: 18.3 µM (inactive)
GI50 [23]: 34.7 µM (inactive)
GI50 [24]: 17.6 µM (inactive)
GI50 [25]: 23.3 µM (inactive)
GI50 [26]: 19.3 µM (inactive)
GI50 [27]: 19.4 µM (inactive)
GI50 [28]: 65.9 µM (inactive)
GI50 [29]: 19.9 µM (inactive)
GI50 [31]: 27.9 µM (inactive)
GI50 [32]: 28.3 µM (inactive)
GI50 [33]: 25.8 µM (inactive)
GI50 [34]: 21.3 µM (inactive)
GI50 [35]: 19.1 µM (inactive)
GI50 [36]: 17.7 µM (inactive)
GI50 [37]: 16.8 µM (inactive)
GI50 [38]: 21 µM (inactive)
GI50 [54]: 18.8 µM (inactive)
GI50 [39]: 20 µM (inactive)
GI50 [40]: 17.8 µM (inactive)
GI50 [55]: 20 µM (inactive)
GI50 [42]: 19.3 µM (inactive)
GI50 [43]: 17.1 µM (inactive)
GI50 [45]: 20.3 µM (inactive)
GI50 [56]: 21.9 µM (inactive)
GI50 [46]: 18.2 µM (inactive)
GI50 [47]: 19.6 µM (inactive)
GI50 [48]: 17.8 µM (inactive)
GI50 [49]: 29.4 µM (inactive)
GI50 [51]: 26.5 µM (inactive)
GI50 [52]: 20 µM (inactive)
GI50 [57]: 18.2 µM (inactive)
